Source: publication PMC6222558, “Synthesis and Evolution of Berberine Derivatives as a New Class of Antiviral Agents against Enterovirus 71 through the MEK/ERK Pathway and Autophagy” (Molecules : A Journal of Synthetic Chemistry and Natural …, 2018)

Key:
[1] = system: EV71 H strain (VR-1432, genotype C2); experiment: CPE inhibition assay for anti-EV71, H strain; assay type: cell-based, enterovirus 71 (EV71); details: Vero cells; for IC50: Enterovirus A, EV71, CPE, calculated on the organic part, n = 3, read-out: H Strain IC50; for anti-EV71 activity against H strain, in words: compared with BBR
Description: (§1) Thus, all newly synthesized BBR analogues were screened for their anti-EV71 potencies in African green monkey kidney (Vero) cells taking BBR as the positive control. EV71 strains used in the present study include different genotype strains, such as H strain (VR-1432, genotype C2), BrCr strain (VR-1775, genotype A), and JS-52 and SHZH98 (genotype C4). The potency against EV71 strains above mentioned of each tested compound was evaluated by the combination of its IC50 and selectivity index (SI) value as the important therapeutic indication.
(§2) Vero cells were purchased from the American Type Culture Collection (ATCC, […], MD, USA), and were cultured in Minimum Essential Medium (MEM) supplemented with 10% fetal bovine serum (FBS) (GIBCO, Grand Island, NY, USA) and antibiotics (100 U/mL penicillin and […] streptomycin) at 37 °C in a 5% CO2 incubator. EV71 strain SHZH98 isolated from the throat swab sample of an HFMD case occurring in 1998 in China was kindly provided by Dr. Qi Jin (Institute of Pathogen Biology, Chinese Academy of Medical Science and Peking Union Medical School, Beijing, China), and JS-52 strain was a kind gift from Dr. Xiangzhong Ye (Beijing Wantai Biological Pharmacy Enterprise Co., Ltd., Beijing, China). The EV71 BrCr and H strains were purchased from the ATCC. All of EV71 strains were passaged in Vero cells.
(§3) The anti-EV71 activities of all tested compounds were detected by the virus-induced CPE assay. Briefly, cells (3 × 10^4 cells/well) were plated into 96-well culture plates and incubated for 16 h. Then, remove the medium and infected cells with EV71 of 100 × TCID50 (50% tissue culture infective doses) in serum-free medium for 1 h at 37 °C. After that, the unbound viruses were removed and various concentrations of tested compounds were supplemented for incubation of another 72 h. […] TC50 defined as the concentration that leads to the 50% of CPE which determined by the same method in 72 h. In addition, the cells were stained the cells were colored with 0.5% crystal violet in 20% ethanol for 15 min at room temperature and the cells were imaged after rinsed with PBS.

[2] = system: EV71 SHZH98 strain (genotype C4); experiment: CPE inhibition assay for anti-EV71, SHZH98 strain; assay type: cell-based, enterovirus 71 (EV71); details: Enterovirus A, EV71; Vero cells; CPE; calculated on the organic part; n = 3; read-out: SHZH98 Strain IC50
Description: as §1, §2, §3

[3] = system: EV71 BrCr strain (VR-1775, genotype A); experiment: CPE inhibition assay for anti-EV71, BrCr strain; assay type: cell-based, enterovirus 71 (EV71); details: Enterovirus A, EV71; Vero cells; CPE; calculated on the organic part; n = 3; read-out: BrCr Strain IC50
Description: as §1, §2, §3

[4] = system: EV71 JS-52 strain (genotype C4); experiment: CPE inhibition assay for anti-EV71, JS-52 strain; assay type: cell-based, enterovirus 71 (EV71); details: Enterovirus A, EV71; Vero cells; CPE; calculated on the organic part; n = 3; read-out: JS-52 Strain IC50
Description: as §1, §2, §3

[5] = system: Vero cells; experiment: Cytotoxicity assay (CCK) in Vero cells; assay type: cell-based, African green monkey; details: African green monkey, 48 h
Description: as §2
Cytotoxicity of all target compounds in Vero cells was analyzed by CCK (TransGen Biotech, Beijing, China) assay. In brief, cells in exponential phase (3 × 10^4 cells/well) were seeded into 96-well culture plates and incubated overnight. Then, the medium was removed and different concentrations of all target compounds were applied in duple. After 48 h incubation, the cytotoxicity of all target compounds was determined by CCK assay. The signals were read at 450 nm on Enspire (Perkin Elmer, Waltham, MA, USA). The TC50 was defined as the concentration that inhibits 50% cellular growth in comparison with the controls. It is calculated by the Reed and Muench method.

Compound	IC50 [1]	IC50 [2]	IC50 [3]	IC50 [4]	TC50 (median toxic concentration) [5]	anti-EV71 activity against H strain, in words [1]
COc1ccc2cc3[n+](cc2c1OCC(=O)OCC(C)C)CCc1cc2c(cc1-3)OCO2 [2b, 2,3-Methylenedioxy-9-isobutyloxyformylmethylenoxy-10-methoxy protoberberine chloride]	> 5.34 µM	5.46 µM	2.04 µM	5.73 µM	22.3 µM	–
COc1ccc2cc3[n+](cc2c1OCC(=O)O)CCc1cc2c(cc1-3)OCO2 [2d-a, 2,3-Methylenedioxy-9-carboxylmethylenoxy-10-methoxy protoberberine chloride]	> 145 µM	> 145 µM	145 µM	145 µM	437 µM	complete loss on the antivirus potency
COc1ccc2cc3[n+](cc2c1OCC(=O)c1ccc(C)cc1)CCc1cc2c(cc1-3)OCO2 [2e, 2,3-Methylenedioxy-9-p-tolylformylmethylenoxy-10-methoxy protoberberine chloride]	> 5.31 µM	2.84 µM	2.23 µM	2.67 µM	14.4 µM	–
COc1cccc(C(=O)COc2c(OC)ccc3cc4[n+](cc23)CCc2cc3c(cc2-4)OCO3)c1 [2f, 2,3-Methylenedioxy-9-m-methoxyphenylformylmethylenoxy-10-methoxy protoberberine chloride]	> 5.33 µM	1.85 µM	2.21 µM	1.61 µM	9.22 µM	–
COc1ccc2cc3[n+](cc2c1OCC(=O)c1ccc(C(F)(F)F)cc1)CCc1cc2c(cc1-3)OCO2 [2g, 2,3-Methylenedioxy-9-p-trifloromethylphenylformylmethylenoxy-10-methoxy protoberberine chloride]	15.8 µM	12.3 µM	10.6 µM	11.9 µM	54.9 µM	–
CCOC(=O)COc1c(OC)ccc2cc3[n+](cc12)CCc1cc(OC)c(OC)cc1-3 [4a, 2,3,10-Trimethoxy-9-ethyloxyformylmethylenoxy protoberberine chloride]	144 µM	> 144 µM	> 144 µM	> 144 µM	434 µM	–
COc1cccc(C(=O)COc2c(OC)ccc3cc4[n+](cc23)CCc2cc(OC)c(OC)cc2-4)c1 [4e, 2,3,10-Trimethoxy-9-m-methoxyphenylformylmethylenoxy protoberberine chloride]	13.6 µM	27.6 µM	17.1 µM	19.4 µM	143 µM	comparable activity to BBR
COc1cc2c(cc1OC)-c1cc3ccc(OC)c(OC(=O)OCc4ccccc4)c3c[n+]1CC2 [4g, 2,3,10-Trimethoxy-9-benzyloxyformyloxy protoberberine chloride]	> 143 µM	> 143 µM	> 143 µM	129 µM	351 µM	–
CCOC(=O)COc1cc2c(cc1OC)-c1cc3ccc(OC)c(OC)c3c[n+]1CC2 [5a, 2,9,10-Trimethoxy-3-ethyloxyformylmethylenoxy protoberberine chloride]	130 µM	144 µM	125 µM	109 µM	250 µM	–
COc1cc2c(cc1OCC(=O)OCc1ccccc1)CC[n+]1cc3c(OC)c(OC)ccc3cc1-2 [5c, 2,9,10-Trimethoxy-3-benzyloxyformylmethylenoxy protoberberine chloride]	93.7 µM	123 µM	44.1 µM	101 µM	248 µM	–

More lines, main results first:

IC50 [1]	IC50 [2]	IC50 [3]	IC50 [4]	Compound	TC50 (median toxic concentration) [5]	anti-EV71 activity against H strain, in words [1]
48.3 µM	60.4 µM	32.3 µM	45.5 µM	CCOC(=O)COc1c(OC)ccc2cc3[n+](cc12)CCc1cc2c(cc1-3)OCO2 [2a, 2,3-Methylenedioxy-9-ethyloxyformylmethylenoxy-10-methoxy protoberberine chloride]	223 µM	–
13.8 µM	8.59 µM	4.26 µM	7.26 µM	COc1ccc2cc3[n+](cc2c1OCC(=O)C(C)(C)C)CCc1cc2c(cc1-3)OCO2 [2c, 2,3-Methylenedioxy-9-pivalylmethylenoxy-10-methoxy protoberberine chloride]	27.9 µM	–
> 47.9 µM	> 47.9 µM	47.9 µM	> 47.9 µM	COc1ccc2cc3[n+](cc2c1OC(=O)OCc1ccccc1)CCc1cc2c(cc1-3)OCO2 [2h, 2,3-Methylenedioxy-9-benzyloxyformyloxy-10-methoxy protoberberine chloride]	124 µM	obvious decreased activity
31.1 µM	45.7 µM	33.6 µM	43.6 µM	CCOC(=O)Oc1c(OC)ccc2cc3[n+](cc12)CCc1cc2c(cc1-3)OCO2 [2i, 2,3-Methylenedioxy-9-ethyloxyformyloxy-10-methoxy protoberberine chloride]	167 µM	obvious decreased activity
> 144 µM	> 144 µM	144 µM	109 µM	COc1cc2c(cc1OC)-c1cc3ccc(OC)c(OCC(=O)C(C)(C)C)c3c[n+]1CC2 [4b, 2,3,10-Trimethoxy-9-pivalylmethylenoxy protoberberine chloride]	333 µM	–
> 143 µM	> 143 µM	81.1 µM	99.3 µM	COc1cc2c(cc1OC)-c1cc3ccc(OC)c(OCC(=O)OCc4ccccc4)c3c[n+]1CC2 [4c, 2,3,10-Trimethoxy-9-benzyloxyformylmethylenoxy protoberberine chloride]	452 µM	–
> 15.9 µM	> 47.8 µM	44.2 µM	44.2 µM	COc1cc2c(cc1OC)-c1cc3ccc(OC)c(OCC(=O)c4ccc(C)cc4)c3c[n+]1CC2 [4d, 2,3,10-Trimethoxy-9-p-tolylformylmethylenoxy protoberberine chloride]	50.0 µM	–
82.2 µM	82.2 µM	66 µM	54.2 µM	COc1cc2c(cc1OC)-c1cc3ccc(OC)c(OCC(=O)c4ccc(C(F)(F)F)cc4)c3c[n+]1CC2 [4f, 2,3,10-Trimethoxy-9-p-trifloromethylphenylformylmethylenoxy protoberberine chloride]	306 µM	–
41.3 µM	69.3 µM	34.2 µM	34.2 µM	COc1cc2c(cc1OCC(=O)C(C)(C)C)CC[n+]1cc3c(OC)c(OC)ccc3cc1-2 [5b, 2,9,10-Trimethoxy-3-pivalylmethylenoxy protoberberine chloride]	83.3 µM	–
> 15.9 µM	12 µM	> 15.9 µM	9.01 µM	COc1cc2c(cc1OCC(=O)c1ccc(C)cc1)CC[n+]1cc3c(OC)c(OC)ccc3cc1-2 [5d, 2,9,10-Trimethoxy-3-p-methylphenylformylmethylenoxy protoberberine chloride]	41.0 µM	–
